Results on 38 compounds are retold here after ChEMBL document CHEMBL1145549, “Constrained NBMPR analogue synthesis, pharmacophore mapping and 3D-QSAR modeling of equilibrative nucleoside transporter 1 (ENT1) inhibitory activity” (Bioorg Med Chem, 2008).

For the first assay, the target named is T1, Equilibrative nucleoside transporter 1 (Homo sapiens, UniProt Q99808).
T1 sequence (Q99808 whole entry): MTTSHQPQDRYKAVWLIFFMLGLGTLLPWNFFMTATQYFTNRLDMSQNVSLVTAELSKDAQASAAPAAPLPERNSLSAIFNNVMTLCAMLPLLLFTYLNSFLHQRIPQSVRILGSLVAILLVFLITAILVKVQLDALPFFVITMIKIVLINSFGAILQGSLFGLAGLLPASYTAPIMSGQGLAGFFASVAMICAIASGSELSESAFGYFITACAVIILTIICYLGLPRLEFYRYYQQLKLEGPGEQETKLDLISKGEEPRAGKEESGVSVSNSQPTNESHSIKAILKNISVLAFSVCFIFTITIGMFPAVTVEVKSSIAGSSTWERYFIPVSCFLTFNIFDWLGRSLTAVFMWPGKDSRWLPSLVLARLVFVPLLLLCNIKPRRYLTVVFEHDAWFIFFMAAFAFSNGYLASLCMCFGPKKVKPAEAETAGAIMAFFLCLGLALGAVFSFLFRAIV
Kind of assay: Displacement of 5-(SAENTA)-X8-fluorescein from human ENT1 transporter in human K562 cells. It counts as cell-based.
For orientation: Ki means the equilibrium dissociation constant of an inhibitor or competing ligand from its target. Higher therefore signals lower affinity. Compound `O=[N+]([O-])c1ccc2c(c1)CN(c1ncnc3c1nc1n3[C@@H]3O[C@H](CO1)[C@@H](O)[C@H]3O)CC2` gave a Ki of 0.0189 µM.

The compound `O=[N+]([O-])c1ccc2c(c1)CCN(c1ncnc3c1nc1n3[C@@H]3O[C@H](CO1)[C@@H](O)[C@H]3O)C2` yielded a Ki of more than 1 µM.

The compound `O=[N+]([O-])c1cccc2c1CCN(c1ncnc3c1nc1n3[C@@H]3O[C@H](CO1)[C@@H](O)[C@H]3O)C2` came in with a Ki of more than 1 µM.

On to `O=[N+]([O-])c1cccc2c1CN(c1ncnc3c1nc1n3[C@@H]3O[C@H](CO1)[C@@H](O)[C@H]3O)CC2`, for which the Ki was more than 1 µM.

In another assay the target is T1, Equilibrative nucleoside transporter 1. In words: Binding affinity to ENT1 transporter.
As a reminder, the IC50 is the concentration at which inhibition is half-maximal. The compound `O=[N+]([O-])c1ccc2c(c1)CN(c1ncnc3c1nc1n3[C@@H]3O[C@H](CO1)[C@@H](O)[C@H]3O)CC2` showed an IC50 of 0.331 µM.

`O=[N+]([O-])c1ccc2c(c1)CCN(c1ncnc3c1nc1n3[C@@H]3O[C@H](CO1)[C@@H](O)[C@H]3O)C2` had a half-maximal inhibitory concentration (IC50) of 245 µM.

With `CC(=O)Nc1ccc(CNc2ncnc3c2ncn3[C@@H]2O[C@H](CO)[C@@H](O)[C@H]2O)cc1`, the half-maximal inhibitory concentration (IC50) is 0.182 µM.

For the compound `CCCCSc1nc(N)nc2c1ncn2[C@@H]1O[C@H](CO)[C@@H](O)[C@H]1O`, the concentration for half-maximal inhibition (IC50) was 12 µM.

Regarding `CCSc1ncnc2c1ncn2[C@@H]1O[C@H](CO)[C@@H](O)[C@H]1O`, the IC50 is 57.5 µM.

Regarding `O=[N+]([O-])c1ccc(CNc2ncnc3c2ncn3[C@@H]2O[C@H](CO)C[C@H]2O)cc1`, the half-inhibitory concentration (IC50) was 0.977 µM.

`CCCC(C)n1cnc2c(SCc3ccccn3)nc(N)nc21` (configuration not stated) gave an IC50 of 41.7 µM.

With `Nc1nc(SCc2cccnc2)c2ncn([C@@H]3O[C@H](CO)[C@@H](O)[C@H]3O)c2n1`, the IC50 was 14.8 µM.

`OC[C@H]1O[C@@H](n2cnc3c(CSc4ccccc4I)ncnc32)[C@H](O)[C@@H]1O` gave an IC50 of 0.282 µM.

On to `Cn1cnc([N+](=O)[O-])c1Sc1nc(N)nc2c1ncn2[C@@H]1O[C@H](CO)[C@@H](O)[C@H]1O`, for which the 50% inhibitory concentration (IC50) is 575 µM.

Turning to `Nc1nc(SCc2ccccc2Cl)c2ncn([C@@H]3O[C@H](CO)[C@@H](O)[C@H]3O)c2n1`, the IC50 is 13.5 µM.

Compound `Nc1ncnc2c1c(I)cn2[C@@H]1O[C@H](CO)[C@@H](O)[C@H]1O` [IODOTUBERCIDIN] had an IC50 of 229 µM.

Compound `Cc1cccc(CSc2ncnc3c2ncn3[C@@H]2O[C@H](CO)[C@@H](O)[C@H]2O)c1` had an IC50 of 12 µM.

The compound `CCCCn1cnc2c(SC(C)C)nc(N)nc21` showed an IC50 of 120 µM.

As for `Nc1nc(SCc2cc([N+](=O)[O-])ccc2O)c2ncn([C@@H]3O[C@H](CO)[C@@H](O)[C@H]3O)c2n1`, the half-maximal inhibitory concentration (IC50) was 0.00275 µM.

`OC[C@H]1O[C@@H](n2cnc3c(CSc4ccc(Cl)cc4)ncnc32)[C@H](O)[C@@H]1O` showed an IC50 of 0.251 µM.

On to `CCCCCNc1ncnc2c1ncn2[C@@H]1O[C@H](CO)[C@@H](O)[C@H]1O`, for which the IC50 is 13.5 µM.

Take `OC[C@H]1O[C@@H](n2cnc3c(SCCCc4ccccc4)ncnc32)[C@H](O)[C@@H]1O`: the IC50 is 1.35 µM.

For the compound `OC[C@H]1O[C@@H](n2cnc3c(NCc4ccccc4)ncnc32)[C@H](O)[C@@H]1O` [N6-BENZYLADENOSINE], the IC50 was 10.7 µM.

Turning to `COc1cccc(CNc2ncnc3c2ncn3[C@@H]2O[C@H](CO)[C@@H](O)[C@H]2O)c1`, the IC50 was 115 µM.

For `Nc1nc(SCc2ccccc2[N+](=O)[O-])c2ncn([C@@H]3O[C@H](CO)[C@@H](O)[C@H]3O)c2n1`, the 50% inhibitory concentration (IC50) was 4.57 µM.

`Nc1nc(SCc2cccc(Br)c2)c2ncn([C@@H]3O[C@H](CO)[C@@H](O)[C@H]3O)c2n1` had an IC50 of 2.88 µM.

`OC[C@H]1O[C@@H](n2cnc3c(CSc4ccccc4F)ncnc32)[C@H](O)[C@@H]1O` showed a concentration for half-maximal inhibition (IC50) of 0.355 µM.

Compound `O=[N+]([O-])c1cccc2c1CCN(c1ncnc3c1nc1n3[C@@H]3O[C@H](CO1)[C@@H](O)[C@H]3O)C2` had an IC50 of 7410 µM.

In turn, `O=[N+]([O-])c1ccc(CNc2ncnc3c2ncn3[C@@H]2O[C@H](CO)[C@@H](O)[C@H]2O)cc1` showed a 50% inhibitory concentration (IC50) of 0.0275 µM.

For the compound `Cc1cc(C)c(SCc2ncnc3c2ncn3[C@@H]2O[C@H](CO)[C@@H](O)[C@H]2O)c(C)c1`, the IC50 is 33.1 µM.

With `Cc1ccccc1CSc1ncnc2c1ncn2[C@@H]1O[C@H](CO)[C@@H](O)[C@H]1O`, the 50% inhibitory concentration (IC50) is 6.31 µM.

Compound `O=[N+]([O-])c1cccc2c1CN(c1ncnc3c1nc1n3[C@@H]3O[C@H](CO1)[C@@H](O)[C@H]3O)CC2` showed a half-inhibitory concentration (IC50) of 1740 µM.

As to `CCCSc1nc(N)nc2c1ncn2[C@@H]1O[C@H](CO)[C@@H](O)[C@H]1O`, the IC50 was 32.4 µM.

For the compound `O=[N+]([O-])c1cccc(SCc2ncnc3c2ncn3[C@@H]2O[C@H](CO)[C@@H](O)[C@H]2O)c1`, the IC50 was 0.00479 µM.

Consider `CC(C)(C)c1ccc(SCc2ncnc3c2ncn3[C@@H]2O[C@H](CO)[C@@H](O)[C@H]2O)cc1`, for which the concentration for half-maximal inhibition (IC50) was 331 µM.

`COc1ccc(SCc2ncnc3c2ncn3[C@@H]2O[C@H](CO)[C@@H](O)[C@H]2O)cc1` had an IC50 of 0.617 µM.

Regarding `OC[C@H]1O[C@@H](n2cnc3c(CSc4c(F)cccc4Cl)ncnc32)[C@H](O)[C@@H]1O`, the IC50 is 1.51 µM.

As to `CCCCn1cnc2c(SC)nc(N)nc21`, the IC50 is 219 µM.

The compound `OC[C@H]1O[C@@H](n2ccc3c(SCc4ccccc4)ncnc32)[C@H](O)[C@@H]1O` showed a half-maximal inhibitory concentration (IC50) of 5.25 µM.

In turn, `OC[C@H]1O[C@@H](n2cnc3c(Nc4ccccc4)ncnc32)[C@H](O)[C@@H]1O` [N6-PHENYLADENOSINE] gave an IC50 of 32.4 µM.

`OC[C@H]1O[C@@H](n2cnc3c(OCc4ccccc4)ncnc32)[C@H](O)[C@@H]1O` showed an IC50 of 2.09 µM.

The compound `OC[C@H]1O[C@@H](n2cnc3c(NCc4cccs4)ncnc32)[C@H](O)[C@@H]1O` gave a 50% inhibitory concentration (IC50) of 17.8 µM.
